US20250143299A1, “METHODS AND COMPOSITIONS FOR CONTROLLING PESTS IN VEGETABLES” (Globachem NV, priority 2022, published 2025)

Columns and labels:
Type in all cases: in vivo
[1] = system: Diabrotica speciosa; test: Example 11 Trial 2 potato, Diabrotica speciosa (DIABSC) control; details: appl. AB
Source text: Potatoes—Diabrotica speciosa (Cucurbit Beetle)—DIABSC A water volume of 400 L water/ha was used for each application. Application A made at the occurrence of the insects; application B was made 7 days later. Each plot was 15 m^2. 5.15 insects per 20 plants were present at the time of application.

[2] = system: Tomato; test: Example 1 phytotoxicity, general injury (PHYGEN) on tomato; details: appl. A
Source text: (§1) “Low Phytotoxicity” of pelargonic acid, as used herein means that the toxic effect on plants is absent or at such a level so as not to adversely impact the growth and/or yield of the plant under a given set of test conditions, e.g., at a given concentration of pelargonic acid. Phytotoxic effects may be measured in a number of different ways, for example, according to the principals set out in OEPP/EPPO Bulletin (2014) 44(3), 265-273 “PP 1/135 (4) Phytotoxicity assessment”. The phytotoxic effect on plants may be assessed visually as a function of the percentage of discoloration to the leaves and/or the appearance of necrosis. When the pelargonic acid compositions are applied to the foliage of the vegetable plants in accordance with the teachings herein, will typically result in a level of phytotoxicity of less than 20%, preferably less than 15%, more preferably less than 10% necrosis of the leaves in comparison to untreated plants. Preferred uses of the invention will typically result in phytotoxicity of 7% or less, whilst the most preferred uses will typically result in phytotoxicity of 5% or less. The above values are approximate as any purely visual assessment is likely to contain a degree of subjectivity.
Trial conducted in 4 replicates on plots of 10 plants each. Application A was made at the occurrence of the insects.

[3] = system: Tomato; test: Example 2 phytotoxicity, necrosis/burn (PHYNEC) on tomato; design: key: % visual leaf necrosis/discoloration vs untreated plants; details: appl. AB
Source text: as §1
Trial conducted in 4 replicates on plots of 25 plants each. Application was made at the occurrence of the insects.

[4] = system: Leptinotarsa decemlineata; test: Example 8 Trial 2 potato, Leptinotarsa decemlineata (LEPTNDE) control; details: appl. AB
Source text: Trial 2: Potatoes, 4 replicates per plot, each plot at least 25 m^2. A water volume of 200 L water/ha was used for each application. Two applications were made at a 14d interval.
Application made at the occurrence of the insects. Application A was made at Stage BBCH 39-41, application B was made 14 days later at Stage BBCH 41-44.
Insects present at the time of application: at App A: 9/10 plants at App B in untreated: 44/10 plants

[5] = system: Pea; test: Example 5 phytotoxicity, chlorosis (PHYCHL) on pea; design: scale not given here; details: appl. AB
Protocol: The trial was conducted on peas, variety Batuta, 4 replicates per plot. A water volume of 200 L water/ha was used for each application. Two applications were made, Application A was made at first infestation and Application B was made 14d later. Each plot at least 12 m^2.

SMILES: CCCCCCCCC(=O)O [PA, pelargonic acid]
- # Insects, 20 plants ([1]; 487.5 g/ha (0.75 L/ha), 3 DAA): 38.10b % UNCK
- # Insects, 20 plants ([1]; 487.5 g/ha (0.75 L/ha), 3 DAB): 25.00ab % UNCK
- # Insects, 20 plants ([1]; 650 g/ha (1 L/ha), 3 DAA): 61.90bc % UNCK
- # Insects, 20 plants ([1]; 650 g/ha (1 L/ha), 3 DAB): 25.00ab % UNCK
- # Insects, 20 plants ([1]; 975 g/ha (1.5 L/ha), 7 DAA): 100.00d % UNCK
- # Insects, 20 plants ([1]; 975 g/ha (1.5 L/ha), 7 DAB): 100.00c % UNCK
- # Insects, 20 plants ([1]; 975 g/ha (1.5 L/ha), 10 DAB): 100.00c % UNCK
- Phytotoxicity - General Injury (PHYGEN) ([2]; 650 g/ha (1 L/ha), 0 DAA): 0%
- Phytotoxicity - General Injury (PHYGEN) ([2]; 650 g/ha (1 L/ha), 2 DAA): 0%
- Phytotoxicity - General Injury (PHYGEN) ([2]; 650 g/ha (1 L/ha), 8 DAA): 0%
- Phytotoxicity - General Injury (PHYGEN) ([2]; 650 g/ha (1 L/ha), 15 DAA): 0%
- Phytotoxicity - General Injury (PHYGEN) ([2]; 1300 g/ha (2 L/ha), 0 DAA): 0%
- Phytotoxicity - General Injury (PHYGEN) ([2]; 1300 g/ha (2 L/ha), 2 DAA): 0%
- Phytotoxicity - General Injury (PHYGEN) ([2]; 1300 g/ha (2 L/ha), 8 DAA): 0%
- Phytotoxicity - General Injury (PHYGEN) ([2]; 1300 g/ha (2 L/ha), 15 DAA): 0%
- Phytotoxicity - General Injury (PHYGEN) ([2]; 2600 g/ha (4 L/ha), 0 DAA): 0%
- Phytotoxicity - General Injury (PHYGEN) ([2]; 2600 g/ha (4 L/ha), 2 DAA): 0%
- Phytotoxicity - General Injury (PHYGEN) ([2]; 2600 g/ha (4 L/ha), 8 DAA): 0%
- Phytotoxicity - General Injury (PHYGEN) ([2]; 2600 g/ha (4 L/ha), 15 DAA): 0%
- Phytotoxicity - Necrosis/burn (PHYNEC) ([3]; 1300 g/ha (2 L/ha), 3 DAA): 0
- Phytotoxicity - Necrosis/burn (PHYNEC) ([3]; 1300 g/ha (2 L/ha), 7 DAA): 0
- Phytotoxicity - Necrosis/burn (PHYNEC) ([3]; 1300 g/ha (2 L/ha), 7 DAB): 0
- Phytotoxicity - Necrosis/burn (PHYNEC) ([3]; 1300 g/ha (2 L/ha), 14 DAA): 0
- Phytotoxicity - Necrosis/burn (PHYNEC) ([3]; 1950 g/ha (3 L/ha), 3 DAA): 0
- Phytotoxicity - Necrosis/burn (PHYNEC) ([3]; 1950 g/ha (3 L/ha), 7 DAA): 0
- Phytotoxicity - Necrosis/burn (PHYNEC) ([3]; 1950 g/ha (3 L/ha), 7 DAB): 0
- Phytotoxicity - Necrosis/burn (PHYNEC) ([3]; 1950 g/ha (3 L/ha), 14 DAA): 0
- Phytotoxicity - Necrosis/burn (PHYNEC) ([3]; 2600 g/ha (4 L/ha), 3 DAA): 0
- Phytotoxicity - Necrosis/burn (PHYNEC) ([3]; 2600 g/ha (4 L/ha), 7 DAA): 0
- Phytotoxicity - Necrosis/burn (PHYNEC) ([3]; 2600 g/ha (4 L/ha), 7 DAB): 0
- Phytotoxicity - Necrosis/burn (PHYNEC) ([3]; 2600 g/ha (4 L/ha), 14 DAA): 0
- Phytotoxicity - Necrosis/burn (PHYNEC) ([3]; 5200 g/ha (8 L/ha), 3 DAA): 0
- Phytotoxicity - Necrosis/burn (PHYNEC) ([3]; 5200 g/ha (8 L/ha), 7 DAA): 0
- Phytotoxicity - Necrosis/burn (PHYNEC) ([3]; 5200 g/ha (8 L/ha), 7 DAB): 0
- Phytotoxicity - Necrosis/burn (PHYNEC) ([3]; 5200 g/ha (8 L/ha), 14 DAA): 0
- COUINS # L1-L3/10 plants ([4]; 585 g/ha (0.9 L/ha), 7 DAA): 51.7 % UNCK
- COUINS # L4/10 plants ([4]; 585 g/ha (0.9 L/ha), 7 DAA): 45 % UNCK
- COUINS # L1-L3/10 plants ([4]; 585 g/ha (0.9 L/ha), 10 DAB): 68.6 % UNCK
- COUINS # L4/10 plants ([4]; 585 g/ha (0.9 L/ha), 10 DAB): 64.2 % UNCK
- COUINS Adults/10 plants ([4]; 585 g/ha (0.9 L/ha), 10 DAB): 48 % UNCK
- COUINS # L1-L3/10 plants ([4]; 975 g/ha (1.5 L/ha), 7 DAA): 48.5 % UNCK
- COUINS # L4/10 plants ([4]; 975 g/ha (1.5 L/ha), 7 DAA): 35 % UNCK
- COUINS # L1-L3/10 plants ([4]; 975 g/ha (1.5 L/ha), 10 DAB): 76 % UNCK
- COUINS # L4/10 plants ([4]; 975 g/ha (1.5 L/ha), 10 DAB): 77 % UNCK
- COUINS Adults/10 plants ([4]; 975 g/ha (1.5 L/ha), 10 DAB): 55 % UNCK
- COUINS # L1-L3/10 plants ([4]; 1300 g/ha (2.0 L/ha), 7 DAA): 70.9 % UNCK
- COUINS # L4/10 plants ([4]; 1300 g/ha (2.0 L/ha), 7 DAA): 59.9 % UNCK
- COUINS # L1-L3/10 plants ([4]; 1300 g/ha (2.0 L/ha), 10 DAB): 89.8 % UNCK
- COUINS # L4/10 plants ([4]; 1300 g/ha (2.0 L/ha), 10 DAB): 86.2 % UNCK
- COUINS Adults/10 plants ([4]; 1300 g/ha (2.0 L/ha), 10 DAB): 69 % UNCK
- COUINS # L1-L3/10 plants ([4]; 2600 g/ha (4.0 L/ha), 7 DAA): 73.4 % UNCK
- COUINS # L4/10 plants ([4]; 2600 g/ha (4.0 L/ha), 7 DAA): 80.9 % UNCK
- COUINS # L1-L3/10 plants ([4]; 2600 g/ha (4.0 L/ha), 10 DAB): 93.4 % UNCK
- COUINS # L4/10 plants ([4]; 2600 g/ha (4.0 L/ha), 10 DAB): 92.8 % UNCK
- COUINS Adults/10 plants ([4]; 2600 g/ha (4.0 L/ha), 10 DAB): 78.9 % UNCK
- Phytotoxicity - Chlorosis (PHYCHL) ([5]; 585 g/ha (0.9 L/ha), 3 DAA): 0
- Phytotoxicity - Chlorosis (PHYCHL) ([5]; 585 g/ha (0.9 L/ha), 3 DAB): 0
- Phytotoxicity - Chlorosis (PHYCHL) ([5]; 585 g/ha (0.9 L/ha), 7 DAA): 0
- Phytotoxicity - Chlorosis (PHYCHL) ([5]; 585 g/ha (0.9 L/ha), 7 DAB): 0
- Phytotoxicity - Chlorosis (PHYCHL) ([5]; 585 g/ha (0.9 L/ha), 14 DAA): 0
- Phytotoxicity - Chlorosis (PHYCHL) ([5]; 585 g/ha (0.9 L/ha), 14 DAB): 0
- Phytotoxicity - Chlorosis (PHYCHL) ([5]; 585 g/ha (0.9 L/ha), Same day A): 0
- Phytotoxicity - Chlorosis (PHYCHL) ([5]; 585 g/ha (0.9 L/ha), Same day B): 0
- Phytotoxicity - Chlorosis (PHYCHL) ([5]; 975 g/ha (1.5 L/ha), 3 DAA): 2
- Phytotoxicity - Chlorosis (PHYCHL) ([5]; 975 g/ha (1.5 L/ha), 3 DAB): 2
- Phytotoxicity - Chlorosis (PHYCHL) ([5]; 975 g/ha (1.5 L/ha), 7 DAA): 2
- Phytotoxicity - Chlorosis (PHYCHL) ([5]; 975 g/ha (1.5 L/ha), 7 DAB): 2
- Phytotoxicity - Chlorosis (PHYCHL) ([5]; 975 g/ha (1.5 L/ha), 14 DAA): 2
- Phytotoxicity - Chlorosis (PHYCHL) ([5]; 975 g/ha (1.5 L/ha), 14 DAB): 0
- Phytotoxicity - Chlorosis (PHYCHL) ([5]; 975 g/ha (1.5 L/ha), Same day A): 0
- Phytotoxicity - Chlorosis (PHYCHL) ([5]; 975 g/ha (1.5 L/ha), Same day B): 3
- Phytotoxicity - Chlorosis (PHYCHL) ([5]; 1300 g/ha (2.0 L/ha), 3 DAA): 5
- Phytotoxicity - Chlorosis (PHYCHL) ([5]; 1300 g/ha (2.0 L/ha), 3 DAB): 6
- Phytotoxicity - Chlorosis (PHYCHL) ([5]; 1300 g/ha (2.0 L/ha), 7 DAA): 6
- Phytotoxicity - Chlorosis (PHYCHL) ([5]; 1300 g/ha (2.0 L/ha), 7 DAB): 6
- Phytotoxicity - Chlorosis (PHYCHL) ([5]; 1300 g/ha (2.0 L/ha), 14 DAA): 4
- Phytotoxicity - Chlorosis (PHYCHL) ([5]; 1300 g/ha (2.0 L/ha), 14 DAB): 0
- Phytotoxicity - Chlorosis (PHYCHL) ([5]; 1300 g/ha (2.0 L/ha), Same day A): 5
- Phytotoxicity - Chlorosis (PHYCHL) ([5]; 1300 g/ha (2.0 L/ha), Same day B): 4
- Phytotoxicity - Chlorosis (PHYCHL) ([5]; 2600 g/ha (4.0 L/ha), 3 DAA): 15
- Phytotoxicity - Chlorosis (PHYCHL) ([5]; 2600 g/ha (4.0 L/ha), 3 DAB): 23
- Phytotoxicity - Chlorosis (PHYCHL) ([5]; 2600 g/ha (4.0 L/ha), 7 DAA): 20
- Phytotoxicity - Chlorosis (PHYCHL) ([5]; 2600 g/ha (4.0 L/ha), 7 DAB): 13
- Phytotoxicity - Chlorosis (PHYCHL) ([5]; 2600 g/ha (4.0 L/ha), 14 DAA): 20
- Phytotoxicity - Chlorosis (PHYCHL) ([5]; 2600 g/ha (4.0 L/ha), 14 DAB): 2
- Phytotoxicity - Chlorosis (PHYCHL) ([5]; 2600 g/ha (4.0 L/ha), Same day A): 15
- Phytotoxicity - Chlorosis (PHYCHL) ([5]; 2600 g/ha (4.0 L/ha), Same day B): 20
